Data taken from patent US20240043427A1 (Gilead Sciences, Inc., priority 2020, published 2024).
“And” between values parts separate entries of the source, which are not always exact repeats. Equal values may be shown once.

Legend:
[1] = biological target: T1, CD73 (Homo sapiens (Human), UniProt P21589); assay: MDA-MB-231 Cell Based CD73 Activity Assay; conditions: MDA-MB-231-GFP cells, RPMI medium with 10% human plasma, 200 uM AMP
Protocol: MDA-MB-231 Cell Based CD73 Activity Assay
MDA-MB-231-GFP cells were seeded in 384-well plates (Greiner 781946) at a density of 10000 cells per well in 50 μL of RPMI medium with 10% HP (human plasma). Cells were plated into assay plate with compounds pre-spotted, for an overnight compound treatment. 50 μL of 400 μM AMP (final concentration 200 μM) using a Bio-tek dispenser. Plates were incubated for 100 mins. […] The samples were run using Rapid fire.

[2] = biological target: T1, CD73; assay: CD73 Biochemical IC50 Assay; conditions: CD73 0.3 nM, AMP 15 uM, 25 mM Tris pH 7.4, 5 mM MgCl2
Protocol: CD73 Biochemical IC50 Assay
Compound serial dilutions were pre-spotted into Thermo Nunc assay plate. 50 μL CD73 enzyme buffer (CD73 purchased from R&D system=0.6 nM, 25 mM Tris, pH 7.4, 5 mM MgCl2) was added into the assay plate and incubated for 15 mins. […] The samples were run using Rapid fire.

T1 sequence (P21589 27-574): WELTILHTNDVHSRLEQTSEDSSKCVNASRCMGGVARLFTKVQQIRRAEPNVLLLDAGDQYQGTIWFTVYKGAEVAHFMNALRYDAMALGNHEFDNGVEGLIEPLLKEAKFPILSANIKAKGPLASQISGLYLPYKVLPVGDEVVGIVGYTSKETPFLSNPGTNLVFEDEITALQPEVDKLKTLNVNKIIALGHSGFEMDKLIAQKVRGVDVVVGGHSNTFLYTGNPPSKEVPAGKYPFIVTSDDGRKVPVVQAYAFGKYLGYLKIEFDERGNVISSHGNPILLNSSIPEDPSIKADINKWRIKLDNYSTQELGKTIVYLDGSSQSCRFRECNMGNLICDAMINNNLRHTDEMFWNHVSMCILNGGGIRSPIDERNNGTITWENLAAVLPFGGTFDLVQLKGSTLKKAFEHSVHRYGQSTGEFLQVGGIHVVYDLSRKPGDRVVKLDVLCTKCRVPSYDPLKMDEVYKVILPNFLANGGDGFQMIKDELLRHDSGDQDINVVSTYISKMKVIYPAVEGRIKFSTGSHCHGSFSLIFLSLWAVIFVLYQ

EC50 [1]	IC50 [2]	Structure (SMILES)
36.1 nM and 47.2 nM	29 nM and 45.8 nM	O=c1[nH]cc(-c2cc([C@H]3C[C@@H]3C3CC3)c3nccn3n2)c(=O)[nH]1 (racemic) [Example 8, 5-(8-((1R,2S)-[1,1′-bi(cyclopropan)]-2-yl)imidazo[1,2-b]pyridazin-6-yl)pyrimidine-2,4(1H,3H)-dione and 5-(8-((1S,2R)-[1,1′-bi(cyclopropan)]-2-yl)imidazo[1,2-b]pyridazin-6-yl)pyrimidine-2,4(1H,3H)-dione]
18.6 nM	61.6 nM	O=c1[nH]cc(-c2cc([C@H]3C[C@@H]3c3cccc(C(F)(F)F)c3)c3nccn3n2)c(=O)[nH]1 (racemic) [Example 41, 5-[8-[(1S,2S)-2-[3-(trifluoromethyl)phenyl]cyclopropyl]imidazo[1,2-b]pyridazin-6-yl]-1H-pyrimidine-2,4-dione and 5-[8-[(1R,2R)-2-[3-(trifluoromethyl)phenyl]cyclopropyl]imidazo[1,2-b]pyridazin-6-yl]-1H-pyrimidine-2,4-dione]
6.59 nM	32.6 nM	O=c1[nH]cc(-c2cc([C@H]3C[C@@H]3c3ccc(C4CC4)cc3)c3nccn3n2)c(=O)[nH]1 (racemic) [Example 45, 5-(8-((1S,2S)-2-(4-cyclopropylphenyl)cyclopropyl)imidazo[1,2-b]pyridazin-6-yl)pyrimidine-2,4(1H,3H)-dione and 5-(8-((1R,2R)-2-(4-cyclopropylphenyl)cyclopropyl)imidazo[1,2-b]pyridazin-6-yl)pyrimidine-2,4(1H,3H)-dione]
13.7 nM	47.2 nM	O=c1[nH]cc(-c2cc([C@H]3C[C@@H]3c3cccc(OC(F)(F)F)c3)c3nccn3n2)c(=O)[nH]1 (racemic) [Example 47, 5-(8-((1S,2S)-2-(3-(trifluoromethoxy)phenyl)cyclopropyl)imidazo[1,2-b]pyridazin-6-yl) pyrimidine-2,4(1H,3H)-dione and 5-(8-((1R,2R)-2-(3-(trifluoromethoxy)phenyl)cyclopropyl)imidazo[1,2-b]pyridazin-6-yl) pyrimidine-2,4(1H,3H)-dione]
6.43 nM	12.6 nM	O=c1[nH]cc(-c2cc([C@H]3C[C@@H]3c3cc(F)cc(F)c3)c3nccn3n2)c(=O)[nH]1 (racemic) [Example 60, 5-(8-((1S,2S)-2-(3,5-difluorophenyl)cyclopropyl)imidazo[1,2-b]pyridazin-6-yl)pyrimidine-2,4(1H,3H)-dione and 5-(8-((1R,2R)-2-(3,5-difluorophenyl)cyclopropyl)imidazo[1,2-b]pyridazin-6-yl)pyrimidine-2,4(1H,3H)-dione]
6.71 nM	13.2 nM	O=c1[nH]cc(-c2cc([C@H]3C[C@@H]3c3cc(F)ccc3F)c3nccn3n2)c(=O)[nH]1 (racemic) [Example 65, 5-(8-((1S,2S)-2-(2,5-difluorophenyl)cyclopropyl)imidazo[1,2-b]pyridazin-6-yl)pyrimidine-2,4(1H,3H)-dione and 5-(8-((1R,2R)-2-(2,5-difluorophenyl)cyclopropyl)imidazo[1,2-b]pyridazin-6-yl)pyrimidine-2,4(1H,3H)-dione]
540 nM	170 nM	O=c1[nH]cc(-c2cc([C@H]3C[C@@H]3c3cccc4ccccc34)c3nccn3n2)c(=O)[nH]1 (racemic) [Example 74, 5-[8-[(1S,2S)-2-(1-naphthyl)cyclopropyl]imidazo[1,2-b]pyridazin-6-yl]-1H-pyrimidine-2,4-dione and 5-[8-[(1R,2R)-2-(1-naphthyl)cyclopropyl]imidazo[1,2-b]pyridazin-6-yl]-1H-pyrimidine-2,4-dione]
2.48 nM	26.5 nM	O=c1[nH]cc(-c2cc([C@H]3C[C@@H]3c3ccc(F)cc3)c3ncc(F)n3n2)c(=O)[nH]1 (racemic) [Example 76, 5-[3-fluoro-8-[(1S,2S)-2-(4-fluorophenyl)cyclopropyl]imidazo[1,2-b]pyridazin-6-yl]-1H-pyrimidine-2,4-dione and 5-[3-fluoro-8-[(1R,2R)-2-(4-fluorophenyl)cyclopropyl]imidazo[1,2-b]pyridazin-6-yl]-1H-pyrimidine-2,4-dione]
39.1 nM	49.5 nM	O=c1[nH]cc(-c2cc([C@H]3C[C@@H]3c3ccc(F)c(C(F)(F)F)c3)c3nccn3n2)c(=O)[nH]1 (racemic) [Example 95, 5-(8-((1S,2S)-2-(4-fluoro-3-(trifluoromethyl)phenyl)cyclopropyl)imidazo[1,2-b]pyridazin-6-yl)pyrimidine-2,4(1H,3H)-dione and 5-(8-((1R,2R)-2-(4-fluoro-3-(trifluoromethyl)phenyl)cyclopropyl)imidazo[1,2-b]pyridazin-6-yl)pyrimidine-2,4(1H,3H)-dione]
6.05 nM	19.3 nM	O=c1[nH]cc(-c2cc([C@H]3C[C@@H]3c3ccc(F)c(Cl)c3)c3nccn3n2)c(=O)[nH]1 (racemic) [Example 99, 5-(8-((1S,2S)-2-(3-chloro-4-fluorophenyl)cyclopropyl)imidazo[1,2-b]pyridazin-6-yl)pyrimidine-2,4(1H,3H)-dione and 5-(8-((1R,2R)-2-(3-chloro-4-fluorophenyl)cyclopropyl)imidazo[1,2-b]pyridazin-6-yl)pyrimidine-2,4(1H,3H)-dione]
38.5 nM	285 nM	O=c1[nH]cc(-c2cc([C@H]3C[C@@H]3Cc3ccccc3)c3nccn3n2)c(=O)[nH]1 (racemic) [Example 105, 5-(8-((1S,2R)-2-benzylcyclopropyl)imidazo[1,2-b]pyridazin-6-yl)pyrimidine-2,4(1H,3H)-dione and 5-(8-((1R,2S)-2-benzylcyclopropyl)imidazo[1,2-b]pyridazin-6-yl)pyrimidine-2,4(1H,3H)-dione]
71.5 nM	205 nM	N#Cc1ccc(C[C@H]2C[C@@H]2c2cc(-c3c[nH]c(=O)[nH]c3=O)nn3ccnc23)cc1 (racemic) [Example 111, 4-(41R,2S)-2-(6-(2,4-dioxo-1,2,3,4-tetrahydropyrimidin-5-yl)imidazo[1,2-b]pyridazin-8-yl)cyclopropyl)methyl)benzonitrile and 4-(((1S,2R)-2-(6-(2,4-dioxo-1,2,3,4-tetrahydropyrimidin-5-yl)imidazo[1,2-b]pyridazin-8-yl)cyclopropyl)methyl)benzonitrile]
67.5 nM	69.5 nM	O=c1[nH]cc(-c2cc(N3CCC(c4ccc(F)cc4)C3)c3nccn3n2)c(=O)[nH]1 (stereo in doubt) [Example 68, 5-[8-[(3S)-3-(4-fluorophenyl)pyrrolidin-1-yl]imidazo[1,2-b]pyridazin-6-yl]-1H-pyrimidine-2,4-dione]
413 nM	507 nM	Cc1cn2nc(-c3c[nH]c(=O)[nH]c3=O)cc(C3CC3)c2n1 [Example 1, 5-(8-cyclopropyl-2-methyl-imidazo[1,2-b]pyridazin-6-yl)-1H-pyrimidine-2,4-dione]
53.3 nM	32.4 nM	O=c1[nH]cc(-c2cc(C3CC3)c3nc(-c4ccccc4)cn3n2)c(=O)[nH]1 [Example 2, 5-(8-cyclopropyl-2-phenyl-imidazo[1,2-b]pyridazin-6-yl)-1H-pyrimidine-2,4-dione]
195 nM	235 nM	CCOC(=O)c1cn2nc(-c3c[nH]c(=O)[nH]c3=O)cc(C3CC3)c2n1 [Example 3, Ethyl 8-cyclopropyl-6-(2,4-dioxo-1H-pyrimidin-5-yl)imidazo[1,2-b]pyridazine-2-carboxylate]
473 nM	980 nM	O=c1[nH]cc(-c2cc(N3CCOCC3)c3nccn3n2)c(=O)[nH]1 [Example 10, 5-(8-morpholinoimidazo[1,2-b]pyridazin-6-yl)-1H-pyrimidine-2,4-dione]
74.1 nM	110 nM	O=c1[nH]cc(-c2cc(-n3ccnc3)c3nccn3n2)c(=O)[nH]1 [Example 11, 5-(8-imidazol-1-ylimidazo[1,2-b]pyridazin-6-yl)-1H-pyrimidine-2,4-dione]
508 nM and 689 nM	479 nM and 653 nM	O=c1[nH]cc(-c2cc(NCc3ccccc3)c3nccn3n2)c(=O)[nH]1 [Example 12, 5-(8-(benzylamino)imidazo[1,2-b]pyridazin-6-yl)pyrimidine-2,4(1H,3H)-dione]
692 nM and 896 nM	368 nM and 607 nM	CN(Cc1ccccc1)c1cc(-c2c[nH]c(=O)[nH]c2=O)nn2ccnc12 [Example 13, 5-(8-(benzyl(methyl)amino)imidazo[1,2-b]pyridazin-6-yl)pyrimidine-2,4(1H,3H)-dione]
79.2 nM	301 nM	O=c1[nH]cc(-c2cc(C3CCC(F)(F)CC3)c3nccn3n2)c(=O)[nH]1 [Example 14, 5-(8-(4,4-difluorocyclohexyl)imidazo[1,2-b]pyridazin-6-yl)pyrimidine-2,4(1H,3H)-dione]
920 nM	2350 nM	CC(C)c1cc(-c2c[nH]c(=O)[nH]c2=O)nn2cc(C(F)(F)F)nc12 [Example 15, 5-(8-isopropyl-2-(trifluoromethyl)imidazo[1,2-b]pyridazin-6-yl)pyrimidine-2,4(1H,3H)-dione]
333 nM	362 nM	CC(C)c1cc(-c2c[nH]c(=O)[nH]c2=O)nn2cnnc12 [Example 16, 5-(8-isopropyl-[1,2,4]triazolo[4,3-b]pyridazin-6-yl)pyrimidine-2,4(1H,3H)-dione]
3670 nM	> 2500 nM	O=c1[nH]cc(-c2cc(Cc3ccccc3)c3nccn3n2)c(=O)[nH]1 [Example 17, 5-(8-benzylimidazo[1,2-b]pyridazin-6-yl)-1H-pyrimidine-2,4-dione]
